Measured values from patent publication US8058242B2, “Chimeric proteins with natriuretic activity” (The University of Queensland, priority 2004, dated 2011).
Positions of bridges follow the written chain, without caps; N, C: chain ends. Residues, ends and D or L forms follow the SMILES beside them.

What was measured:
[1] = target: T1, Natriuretic Peptide Receptor-A (NPR-A) signaling in MDCK cells (Canis lupus familiaris, UniProt A0A8I3MHU3); type: cell-based, canine; conditions: stimulation of cGMP accumulation in MDCK cells; for EC50: read-out: EC50 (M) ± Standard Error
T1 sequence (A0A8I3MHU3 32-1060): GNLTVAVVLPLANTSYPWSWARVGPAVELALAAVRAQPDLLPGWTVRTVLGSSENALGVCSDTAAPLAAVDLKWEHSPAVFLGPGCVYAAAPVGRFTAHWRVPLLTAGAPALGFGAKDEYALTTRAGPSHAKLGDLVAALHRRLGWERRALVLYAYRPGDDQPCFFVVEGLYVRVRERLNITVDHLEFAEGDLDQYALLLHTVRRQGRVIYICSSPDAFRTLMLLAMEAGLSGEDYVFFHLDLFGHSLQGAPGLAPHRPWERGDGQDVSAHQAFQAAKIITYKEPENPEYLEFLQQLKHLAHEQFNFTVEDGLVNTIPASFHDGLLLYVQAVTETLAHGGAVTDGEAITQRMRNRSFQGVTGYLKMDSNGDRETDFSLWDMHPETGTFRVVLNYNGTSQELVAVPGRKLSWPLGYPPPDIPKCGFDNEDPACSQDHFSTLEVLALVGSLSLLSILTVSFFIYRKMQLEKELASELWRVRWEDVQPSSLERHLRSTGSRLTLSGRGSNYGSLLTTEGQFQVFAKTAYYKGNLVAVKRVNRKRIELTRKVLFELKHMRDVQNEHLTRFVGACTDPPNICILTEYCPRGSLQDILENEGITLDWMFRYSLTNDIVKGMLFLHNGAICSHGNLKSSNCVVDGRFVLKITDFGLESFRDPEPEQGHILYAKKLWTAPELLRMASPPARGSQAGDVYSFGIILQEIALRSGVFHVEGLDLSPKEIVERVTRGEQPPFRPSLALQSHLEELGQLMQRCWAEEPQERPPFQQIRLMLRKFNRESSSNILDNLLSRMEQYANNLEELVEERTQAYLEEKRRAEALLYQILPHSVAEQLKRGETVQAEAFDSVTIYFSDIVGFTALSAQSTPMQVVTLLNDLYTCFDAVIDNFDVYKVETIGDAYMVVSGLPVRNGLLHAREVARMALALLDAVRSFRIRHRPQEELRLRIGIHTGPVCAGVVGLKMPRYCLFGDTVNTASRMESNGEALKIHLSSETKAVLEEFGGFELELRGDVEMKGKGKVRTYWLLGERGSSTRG

conscious rabbits = experiment: Blood pressure and heart rate in conscious rabbits, intravenous infusion dose-response (Example 8)
[2] = after a 2 hour recovery period, Table 10B

CC[C@H](C)[C@H](NC(=O)[C@H](CCCCN)NC(=O)[C@H](CO)NC(=O)[C@H](CC(=O)O)NC(=O)[C@@H](N)CO)C(=O)NCC(=O)N[C@@H](CC(N)=O)C(=O)NCC(=O)N[C@H]1CSSC[C@@H](C(=O)N[C@@H](CC(N)=O)C(=O)N[C@@H](CCCNC(=N)N)C(=O)N[C@H](C(=O)N[C@@H](CCSC)C(=O)N[C@@H](CCC(N)=O)C(=O)N[C@@H](CC(N)=O)C(=O)N2CCC[C@H]2C(=O)N2CCC[C@H]2C(=O)N[C@@H](CCCCN)C(=O)N[C@@H](CCCCN)C(=O)N[C@@H](Cc2ccccc2)C(=O)N[C@@H](CO)C(=O)NCC(=O)N[C@@H](CCC(=O)O)C(=O)O)[C@@H](C)CC)NC(=O)CNC(=O)[C@H](CC(C)C)NC(=O)CNC(=O)[C@H](CO)NC(=O)[C@H](C(C)C)NC(=O)[C@H](CO)NC(=O)[C@H](CCCNC(=N)N)NC(=O)[C@H]([C@@H](C)CC)NC(=O)[C@H](CCCNC(=N)N)NC(=O)[C@H](CC(=O)O)NC(=O)[C@H](CC(C)C)NC(=O)[C@@H]2CCCN2C(=O)[C@H](Cc2ccccc2)NC(=O)CNC(=O)[C@H](Cc2ccccc2)NC1=O [TNPc R-18] (H-SDSKIGNGCFGFPLDRIRSVSGLGCNRIMQNPPKKFSGE-OH; disulfide 9-25; N-terminus assumed)
−Log10 EC50 (pEC50) ± Standard Error [1]: 6.777 ± 0.5812
EC50 [1]: 7e-07 M
MAP at final dose (conscious rabbits; Table 10B): 63.5 mm Hg
Recovery (MAP) (conscious rabbits; [2]): 67.4 mm Hg
Recovery Delta SED (MAP) (conscious rabbits; [2]): 3.8 ± 1.6 mm Hg
Treatment Effect, change of mean blood pressure during the infusion (conscious rabbits; final dose, Table 10B, groups 2B and 2C): −9.0 mm Hg
reduction of MAP compared to vehicle, in words (conscious rabbits; highest dose): did significantly reduce MAP

CC[C@H](C)[C@@H]1NC(=O)[C@H](CCCNC(=N)N)NC(=O)[C@H](CC(=O)O)NC(=O)[C@H]([C@@H](C)CC)NC(=O)[C@H](CCCCN)NC(=O)[C@H](Cc2c[nH]cn2)NC(=O)CNC(=O)[C@H](Cc2ccccc2)NC(=O)[C@@H](NC(=O)CNC(=O)[C@H](CC(N)=O)NC(=O)[C@@H]2CCCN2C(=O)[C@@H]2CCCN2C(=O)CNC(=O)[C@H](CCCCN)NC(=O)[C@H](CCCCN)NC(=O)[C@@H]2CCCN2C(=O)[C@@H]2CCCN2C(=O)[C@H](CCCCN)NC(=O)[C@H](CC(N)=O)NC(=O)[C@H](CC(=O)O)NC(=O)CN)CSSC[C@@H](C(=O)N[C@@H](CC(N)=O)C(=O)N[C@@H](CCCCN)C(=O)N[C@H](C(=O)N[C@@H](CC(=O)O)C(=O)N[C@@H](CC(=O)O)C(=O)N[C@@H](CC(N)=O)C(=O)N[C@@H](CCCCN)C(=O)NCC(=O)O)C(C)C)NC(=O)CNC(=O)[C@H](CC(C)C)NC(=O)CNC(=O)[C@H](CO)NC(=O)[C@H](Cc2c[nH]cn2)NC(=O)[C@H](CO)NC(=O)CNC1=O [Lebetin] (H-GDNKPPKKGPPNGCFGHKIDRIGSHSGLGCNKVDDNKG-OH; disulfide 14-30; N-terminus and C-terminus assumed)
−Log10 EC50 (pEC50) ± Standard Error [1]: 7.637 ± 0.1619
EC50 [1]: 2.67e-08 M

CC[C@H](C)[C@H](NC(=O)[C@H](CCCCN)NC(=O)[C@H](CO)NC(=O)[C@H](CC(=O)O)NC(=O)[C@@H](N)CO)C(=O)NCC(=O)N[C@@H](CC(=O)O)C(=O)NCC(=O)N[C@H]1CSSC[C@@H](C(=O)N[C@@H](CC(N)=O)C(=O)N[C@@H](CCCNC(=N)N)C(=O)N[C@H](C(=O)N[C@@H](CCSC)C(=O)N[C@@H](CCC(N)=O)C(=O)N[C@@H](CC(N)=O)C(=O)N2CCC[C@H]2C(=O)N2CCC[C@H]2C(=O)N[C@@H](CCCCN)C(=O)N[C@@H](CCCCN)C(=O)N[C@@H](Cc2ccccc2)C(=O)N[C@@H](CO)C(=O)NCC(=O)N[C@@H](CCC(=O)O)C(=O)O)[C@@H](C)CC)NC(=O)CNC(=O)[C@H](CC(C)C)NC(=O)CNC(=O)[C@H](CO)NC(=O)[C@H](C(C)C)NC(=O)[C@H](CO)NC(=O)CNC(=O)[C@H]([C@@H](C)CC)NC(=O)[C@H](CCCNC(=N)N)NC(=O)[C@H](CC(=O)O)NC(=O)[C@H](CC(C)C)NC(=O)[C@@H]2CCCN2C(=O)[C@H](Cc2ccccc2)NC(=O)CNC(=O)[C@H](Cc2ccccc2)NC1=O [Peptide N7D-TNPc] (H-SDSKIGDGCFGFPLDRIGSVSGLGCNRIMQNPPKKFSGE-OH; disulfide 9-25; N-terminus assumed)
−Log10 EC50 (pEC50) ± Standard Error [1]: 7.585 ± 0.005
EC50 [1]: 2.62e-08 M

CC[C@H](C)[C@H](NC(=O)[C@H](CCCCN)NC(=O)[C@H](CO)NC(=O)[C@H](CC(=O)O)NC(=O)[C@@H](N)CO)C(=O)NCC(=O)N[C@@H](CC(N)=O)C(=O)NCC(=O)N[C@H]1CSSC[C@@H](C(=O)N[C@@H](CC(N)=O)C(=O)N[C@@H](CCCNC(=N)N)C(=O)N[C@H](C(=O)N[C@@H](CCSC)C(=O)N[C@@H](CCC(N)=O)C(=O)N[C@@H](CC(N)=O)C(=O)N[C@@H](CCCNC(=N)N)C(=O)N2CCC[C@H]2C(=O)N[C@@H](CCCCN)C(=O)N[C@@H](CCCCN)C(=O)N[C@@H](Cc2ccccc2)C(=O)N[C@@H](CO)C(=O)NCC(=O)N[C@@H](CCC(=O)O)C(=O)O)[C@@H](C)CC)NC(=O)CNC(=O)[C@H](CC(C)C)NC(=O)CNC(=O)[C@H](CO)NC(=O)[C@H](C(C)C)NC(=O)[C@H](CO)NC(=O)CNC(=O)[C@H]([C@@H](C)CC)NC(=O)[C@H](CCCNC(=N)N)NC(=O)[C@H](CC(=O)O)NC(=O)[C@H](CC(C)C)NC(=O)[C@@H]2CCCN2C(=O)[C@H](Cc2ccccc2)NC(=O)CNC(=O)[C@H](Cc2ccccc2)NC1=O [Peptide P32R-TNPc] (H-SDSKIGNGCFGFPLDRIGSVSGLGCNRIMQNRPKKFSGE-OH; disulfide 9-25; N-terminus assumed)
−Log10 EC50 (pEC50) ± Standard Error [1]: 7.680 ± 0.5322
EC50 [1]: 9.91e-08 M

CC[C@H](C)[C@H](NC(=O)[C@H](CCCCN)NC(=O)[C@H](CO)NC(=O)[C@H](CC(=O)O)NC(=O)[C@@H](N)CO)C(=O)NCC(=O)N[C@@H](CC(N)=O)C(=O)NCC(=O)N[C@H]1CSSC[C@@H](C(=O)N[C@@H](CC(N)=O)C(=O)N[C@@H](CCCNC(=N)N)C(=O)N2CCC[C@H]2C(=O)N[C@@H](CCSC)C(=O)N[C@@H](CCC(N)=O)C(=O)N[C@@H](CC(N)=O)C(=O)N2CCC[C@H]2C(=O)N2CCC[C@H]2C(=O)N[C@@H](CCCCN)C(=O)N[C@@H](CCCCN)C(=O)N[C@@H](Cc2ccccc2)C(=O)N[C@@H](CO)C(=O)NCC(=O)N[C@@H](CCC(=O)O)C(=O)O)NC(=O)CNC(=O)[C@H](CC(C)C)NC(=O)CNC(=O)[C@H](CO)NC(=O)[C@H](C(C)C)NC(=O)[C@H](CO)NC(=O)CNC(=O)[C@H]([C@@H](C)CC)NC(=O)[C@H](CCCNC(=N)N)NC(=O)[C@H](CC(=O)O)NC(=O)[C@H](CC(C)C)NC(=O)[C@@H]2CCCN2C(=O)[C@H](Cc2ccccc2)NC(=O)CNC(=O)[C@H](Cc2ccccc2)NC1=O [Peptide I28P-TNPc] (H-SDSKIGNGCFGFPLDRIGSVSGLGCNRPMQNPPKKFSGE-OH; disulfide 9-25; N-terminus assumed)
−Log10 EC50 (pEC50) ± Standard Error [1]: 5.995 ± 0.2450
EC50 [1]: 1.19e-06 M
